Experiments:
[1] = biological target: T1, human GnRH receptor (Homo sapiens, UniProt P30968); assay: affinity for human GnRH receptor; assay type: binding; details: kind of constant not stated
T1 sequence (P30968 1-328): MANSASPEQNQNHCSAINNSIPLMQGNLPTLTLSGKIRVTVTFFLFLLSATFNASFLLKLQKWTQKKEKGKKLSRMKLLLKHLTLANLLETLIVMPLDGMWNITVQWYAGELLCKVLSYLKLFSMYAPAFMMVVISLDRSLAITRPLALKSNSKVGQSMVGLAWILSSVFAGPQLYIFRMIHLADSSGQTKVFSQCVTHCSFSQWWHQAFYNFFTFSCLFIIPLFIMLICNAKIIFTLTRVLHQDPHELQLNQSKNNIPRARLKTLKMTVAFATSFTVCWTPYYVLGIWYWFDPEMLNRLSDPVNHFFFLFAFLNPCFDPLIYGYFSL

[2] = system: human female patients suffering from adenomyosis; assay: open-label Phase II clinical trial of compound (VI) in adenomyosis, representative patient; assay type: in vivo; details: for mB&B score: composite score 0-15, baseline 6.0 (Severe); for mB&B score / Change from baseline in EHP-30 score for control and powerlessness / Change from baseline in EHP-30 score for emotional well-being / Change from baseline in EHP-30 score for pain / Change from baseline in EHP-30 score for self-image / Change from baseline in EHP-30 score for social support / Change from baseline in global pelvic pain by NRS / Change from baseline in mB&B score / Change from baseline in uterine volume by MRI / Change from baseline in uterine volume by TVUS / Uterus height by TVUS / Uterus depth by TVUS / Uterus length by TVUS / mB&B score, severity class / EHP-30 Score: Pain (Questions 1-11 of EHP-30) / EHP-30 Score: Social Support (Questions 24-27 of EHP-30) / EHP-30 Score: Self-Image (Questions 28-30 of EHP-30) / EHP-30 Score: Emotional Well-being (Questions 18-23 of EHP-30) / EHP-30 Score: Control and Powerlessness (Questions 12-17 of EHP-30) / Global pelvic pain by numerical rating scale (NRS) / Patient Global Impression of Change since Baseline (PGIC) / Uterus volume by transvaginal ultrasound (TVUS) / Uterus volume by MRI: representative patient; for Uterus height by TVUS: baseline 5.6 cm; for Uterus depth by TVUS: baseline 6.5 cm; for Uterus length by TVUS: baseline 6.7 cm; for mB&B score, severity class: baseline Severe; for EHP-30 Score: Pain (Questions 1-11 of EHP-30): scale 0 (best) to 100 (worst health status), baseline 63.6; for EHP-30 Score: Social Support (Questions 24-27 of EHP-30) / EHP-30 Score: Self-Image (Questions 28-30 of EHP-30) / EHP-30 Score: Emotional Well-being (Questions 18-23 of EHP-30) / EHP-30 Score: Control and Powerlessness (Questions 12-17 of EHP-30): scale 0 (best) to 100 (worst); for EHP-30 Score: Social Support (Questions 24-27 of EHP-30): baseline 43.8; for EHP-30 Score: Self-Image (Questions 28-30 of EHP-30): baseline 50.0; for EHP-30 Score: Emotional Well-being (Questions 18-23 of EHP-30): baseline 66.7; for EHP-30 Score: Control and Powerlessness (Questions 12-17 of EHP-30): baseline 70.8; for Global pelvic pain by numerical rating scale (NRS): scale 0 (no pain) to 10 (worst pain imaginable), baseline 7; for Patient Global Impression of Change since Baseline (PGIC): scale 1 (Very much improved) to 7 (very much worse); for Uterus volume by transvaginal ultrasound (TVUS): volume = l × h × d × 0.523, baseline 128 cm^3; for Uterus volume by MRI: baseline 198
From the text: This example describes the results of an open-label, Phase II clinical trial examining the safety and efficacy of the GnRH antagonist, compound (VI) (3-[2-fluoro-5-(2,3-difluoro-6-methoxybenzyloxy)4-methoxyphenyl]-2,4-dioxo-1,2,3,4-tetrahydrothieno [3,4d]pyrimidine-5-carboxylic acid), for treating human female patients suffering from adenomyosis. The study began with a 4-week patient screening period, followed by two consecutive 12-week treatment periods. During the first 12-week treatment period, patients were administered compound (VI) in a single daily dose of 200 mg. During the second 12-week treatment period, patients were administered compound (VI) in a single daily dose of 100 mg. Patients then entered a post-treatment follow-up period during which the effects of compound (VI) were further assessed.
The total duration of this study (from the screening visit to the end-of-study visit) was 40 weeks per subject. The study began with a 4-week screening period evaluating the symptoms of uterine adenomyosis and assessing the volume of each patient's adenomyosis-affected uterus by way of MRI. During this period, the patients received no study drug.
At the start of menstruation, the patients were administered 200 mg of compound (VI), once daily, in the form of the corresponding choline salt. The administration continued over the course of a 12-weel treatment period, referred to as the “initiation phase,” so as to maximize the effect of the treatment. After the first 12-week treatment period, the therapeutic effect of the GnRH antagonist was maintained by administering 100 mg of compound (VI), once daily, over the course of a second 12-week treatment period. This second treatment period was referred to as the “maintenance phase.”
At the end of the maintenance phase (at week 24), the patients entered a 12-week follow-up period without any active treatment.
The primary efficacy endpoint of this study was a change, from baseline to week 24, in volume of the adenomyosis-affected uterus, as measured by MRI. Secondary endpoints under investigation in this study were as follows: • Change from baseline to weeks 12 and 36 in volume of the uterus with adenomyosis measured by MRI • Change from baseline to weeks 12, 24 and 36 in volume of the uterus with adenomyosis measured by TVUS • Change from baseline to weeks 12, 24 and 36 in the largest thickness of the anterior and posterior part of the uterus myometrium (sagittal assessment) • Change from baseline to weeks 12, 24 and 36 in the largest diameter of the junctional zone of the uterine adenomyosis measured by MRI • Presence of blood spots on the MRI images • Change from baseline to weeks 12, 24 and 36 in uterus volume assessed at vaginal examination • Change from baseline to weeks 12, 24 and 36 in uterine tenderness assessed at vaginal examination • Change from baseline to weeks 12, 24 and 36 in dysmenorrhea, pelvic pain and dyspareunia according to the mB&B scale • Change from baseline to weeks 4, 8, 12, 16, 20, 24 and 36 for global pelvic pain assessed over the preceding 4-week period using a Numerical Rating Scale (NRS) with a monthly recall • Change from baseline to weeks 4, 8, 12, 16, 20, 24, 28, 32 and 36 in the mean monthly dyspareunia score defined as the mean of available daily dyspareunia scores over the preceding 4-week period assessed on the Verbal Rating Scale (VRS) dyspareunia scale and on a NRS • Change from baseline to weeks 4, 8, 12, 16, 20 and 24 fin the mean monthly dyschezia score defined as the mean of weekly dyschezia scores over the preceding 4-week period using a NRS • No uterine bleeding (or spotting only), during the 4-week period preceding weeks 4, 8, 12, 16, 20 and 24 using a simplified bleeding scale • Time to amenorrhea • Change from baseline to weeks 12, 24 and 36 in the Endometriosis Health Profile questionnaire (EHP-30) • Patient Global Impression of Change (PGIC) score at weeks 12, 24 and 36 Data Analysis and Statistics […]

[3] = week 24 (100 mg once daily after 12 weeks of 200 mg)

Question: For COc1cc(F)c(-n2c(=O)[nH]c3csc(C(=O)O)c3c2=O)cc1OCc1c(OC)ccc(F)c1F [Compound (VI), 3-[2-fluoro-5-(2,3-difluoro-6-methoxybenzyloxy)4-methoxyphenyl]-2,4-dioxo-1,2,3,4-tetrahydrothieno [3,4d]pyrimidine-5-carboxylic acid], which “affinity for human GnRH receptor” value [1] is on record?
Answer: Its value is 27.4 nM.

Question: And the “uterine volume, conclusion in words” value ([2]; 24 weeks of treatment, 200 mg then 100 mg once daily)?
Answer: The value was “sustained reduction in uterine volume”.

Question: And the “adenomyosis-associated pain, conclusion in words” value ([2]; 24 weeks of treatment, 200 mg then 100 mg once daily, various metrics)?
Answer: Its value is “substantial reduction in adenomyosis-associated pain”.

Question: What about the “mB&B score” value ([2]; week 12 (200 mg once daily)) of the same molecule?
Answer: Its value is 2.0.

Question: And the “Change from baseline in EHP-30 score for control and powerlessness” value ([2]; week 12 (200 mg once daily))?
Answer: Its value is −70.8.

Question: What about the “Change from baseline in EHP-30 score for emotional well-being” value ([2]; week 12 (200 mg once daily)) of the same molecule?
Answer: Its value is −66.7.

Question: And the “Change from baseline in EHP-30 score for pain” value ([2]; week 12 (200 mg once daily))?
Answer: Its value is −63.6.

Question: And the “Change from baseline in EHP-30 score for self-image” value ([2]; week 12 (200 mg once daily))?
Answer: Its value is −50.0.

Question: What about the “Change from baseline in EHP-30 score for social support” value ([2]; week 12 (200 mg once daily)) of the same molecule?
Answer: Its value is −43.8.

Question: What about the “Change from baseline in global pelvic pain by NRS” value ([2]; week 12 (200 mg once daily)) of the same molecule?
Answer: Its value is −7.

Question: What about the “Change from baseline in mB&B score” value ([2]; week 12 (200 mg once daily)) of the same molecule?
Answer: The value was −4.

Question: What about the “Change from baseline in uterine volume by MRI” value ([2]; week 12 (200 mg once daily)) of the same molecule?
Answer: Its value is −114 cm^3.

Question: What about the “Change from baseline in uterine volume by TVUS” value ([2]; week 12 (200 mg once daily)) of the same molecule?
Answer: The value was −79 cm^3.

Question: What about the “Uterus height by TVUS” value ([2]; week 12 (200 mg once daily)) of the same molecule?
Answer: The value was 4.1 cm.

Question: What about the “Uterus depth by TVUS” value ([2]; week 12 (200 mg once daily)) of the same molecule?
Answer: The value was 5.0 cm.

Question: What about the “Uterus length by TVUS” value ([2]; week 12 (200 mg once daily)) of the same molecule?
Answer: The value was 4.5 cm.

Question: And the “mB&B score, severity class” value ([2]; week 12 (200 mg once daily))?
Answer: Its value is “Mild (Mild (1-2))”.

Question: And the “EHP-30 Score: Pain (Questions 1-11 of EHP-30)” value ([2]; week 12 (200 mg once daily))?
Answer: Its value is 0.0.

Question: What about the “EHP-30 Score: Social Support (Questions 24-27 of EHP-30)” value ([2]; week 12 (200 mg once daily)) of the same molecule?
Answer: Its value is 0.

Question: And the “EHP-30 Score: Self-Image (Questions 28-30 of EHP-30)” value ([2]; week 12 (200 mg once daily))?
Answer: The value was 0.

Question: And the “EHP-30 Score: Emotional Well-being (Questions 18-23 of EHP-30)” value ([2]; week 12 (200 mg once daily))?
Answer: The value was 0.

Question: What about the “EHP-30 Score: Control and Powerlessness (Questions 12-17 of EHP-30)” value ([2]; week 12 (200 mg once daily)) of the same molecule?
Answer: Its value is 0.

Question: What about the “Global pelvic pain by numerical rating scale (NRS)” value ([2]; week 12 (200 mg once daily)) of the same molecule?
Answer: Its value is 0.

Question: And the “Patient Global Impression of Change since Baseline (PGIC)” value ([2]; week 12 (200 mg once daily))?
Answer: Its value is 1—Very.

Question: What about the “Uterus volume by transvaginal ultrasound (TVUS)” value ([2]; week 12 (200 mg once daily)) of the same molecule?
Answer: Its value is 48 cm^3.

Question: And the “Uterus volume by MRI” value ([2]; week 12 (end of initiation phase, 200 mg once daily as choline salt))?
Answer: Its value is 84 cm^3.

Question: What about the “mB&B score” value [2, 3] of the same molecule?
Answer: Its value is 2.0.

Question: And the “Change from baseline in EHP-30 score for control and powerlessness” value [2, 3]?
Answer: Its value is −70.8.

Question: What about the “Change from baseline in EHP-30 score for emotional well-being” value [2, 3] of the same molecule?
Answer: The value was −66.7.

Question: And the “Change from baseline in EHP-30 score for pain” value [2, 3]?
Answer: The value was −56.8.

Question: What about the “Change from baseline in EHP-30 score for self-image” value [2, 3] of the same molecule?
Answer: The value was −50.0.

Question: What about the “Change from baseline in EHP-30 score for social support” value [2, 3] of the same molecule?
Answer: Its value is −43.8.

Question: And the “Change from baseline in global pelvic pain by NRS” value [2, 3]?
Answer: The value was −6.

Question: What about the “Change from baseline in mB&B score” value [2, 3] of the same molecule?
Answer: The value was −4.

Question: And the “Change from baseline in uterine volume by MRI” value [2, 3]?
Answer: Its value is −123 cm^3.

Question: And the “Change from baseline in uterine volume by TVUS” value [2, 3]?
Answer: Its value is −79 cm^3.

Question: And the “Uterus height by TVUS” value [2, 3]?
Answer: The value was 4.0 cm.

Question: What about the “Uterus depth by TVUS” value [2, 3] of the same molecule?
Answer: The value was 5.0 cm.

Question: What about the “Uterus length by TVUS” value [2, 3] of the same molecule?
Answer: The value was 4.6 cm.

Question: And the “mB&B score, severity class” value [2, 3]?
Answer: Its value is “Mild (Mild (1-2))”.

Question: And the “EHP-30 Score: Pain (Questions 1-11 of EHP-30)” value [2, 3]?
Answer: The value was 6.8.

Question: What about the “EHP-30 Score: Social Support (Questions 24-27 of EHP-30)” value [2, 3] of the same molecule?
Answer: Its value is 0.

Question: What about the “EHP-30 Score: Self-Image (Questions 28-30 of EHP-30)” value [2, 3] of the same molecule?
Answer: Its value is 0.

Question: And the “EHP-30 Score: Emotional Well-being (Questions 18-23 of EHP-30)” value [2, 3]?
Answer: The value was 0.

Question: And the “EHP-30 Score: Control and Powerlessness (Questions 12-17 of EHP-30)” value [2, 3]?
Answer: Its value is 0.

Question: And the “Global pelvic pain by numerical rating scale (NRS)” value [2, 3]?
Answer: The value was 1.

Question: And the “Patient Global Impression of Change since Baseline (PGIC)” value [2, 3]?
Answer: The value was 1—Very.

Question: What about the “Uterus volume by transvaginal ultrasound (TVUS)” value [2, 3] of the same molecule?
Answer: The value was 48 cm^3.

Question: And the “Uterus volume by MRI” value ([2]; week 24 (end of maintenance phase, 100 mg once daily after 12 weeks of 200 mg))?
Answer: Its value is 75 cm^3.
